Assays:
[1] = target: T1, MMP-14CD (membrane-type MMP-1) (Homo sapiens, UniProt P50281); assay: MMP inhibition, thiopeptolide substrate assay; assay type: biochemical; conditions: thiopeptolide substrate Ac-Pro-Leu-Gly-thioester-Leu-Leu-Gly-OEt; catalytic domain
T1 construct: Experiments were carried out with the full-length and catalytic domains of the proteinases
Method: (§1) Experiments were carried out with the full-length and catalytic domains of the proteinases. […] IC50 values were determined using a thiopeptolide substrate, Ac-Pro-Leu-Gly-thioester-Leu-Leu-Gly-OEt (Ye Q.-Z., Johnson L. L., Hupe D. J., and Baragi V., “Purification and Characterization of the Human Stromelysin Catalytic Domain Expressed in Escherichia coli,” Biochemistry, 1992;31:11231-11235; Ye Q.-Z., Johnson L. L., Yu A. E., and Hupe D., “Reconstructed 19 kDa catalytic domain of gelatinase A is an active proteinase,” Biochemistry, 1995;34:4702-4708.) MMP-13CD was expressed from a synthetic gene and purified from Escherichia coli cell culture according to a previously described method (Ye Q.-Z., Johnson L. L., and Baragi V., “Gene synthesis and expression in E. coli for PUMP, a human matrix metalloproteinase,” Biochemical and Biophysical Research Communications, 1992; 186:143-149).

[2] = target: T2, MMP-2FL (gelatinase A full length enzyme) (Homo sapiens, UniProt P08253); assay: MMP inhibition, thiopeptolide substrate assay; assay type: biochemical; conditions: thiopeptolide substrate Ac-Pro-Leu-Gly-thioester-Leu-Leu-Gly-OEt
T2 construct: MMP-2FL (gelatinase A full length enzyme)
T2 sequence (P08253 110-660): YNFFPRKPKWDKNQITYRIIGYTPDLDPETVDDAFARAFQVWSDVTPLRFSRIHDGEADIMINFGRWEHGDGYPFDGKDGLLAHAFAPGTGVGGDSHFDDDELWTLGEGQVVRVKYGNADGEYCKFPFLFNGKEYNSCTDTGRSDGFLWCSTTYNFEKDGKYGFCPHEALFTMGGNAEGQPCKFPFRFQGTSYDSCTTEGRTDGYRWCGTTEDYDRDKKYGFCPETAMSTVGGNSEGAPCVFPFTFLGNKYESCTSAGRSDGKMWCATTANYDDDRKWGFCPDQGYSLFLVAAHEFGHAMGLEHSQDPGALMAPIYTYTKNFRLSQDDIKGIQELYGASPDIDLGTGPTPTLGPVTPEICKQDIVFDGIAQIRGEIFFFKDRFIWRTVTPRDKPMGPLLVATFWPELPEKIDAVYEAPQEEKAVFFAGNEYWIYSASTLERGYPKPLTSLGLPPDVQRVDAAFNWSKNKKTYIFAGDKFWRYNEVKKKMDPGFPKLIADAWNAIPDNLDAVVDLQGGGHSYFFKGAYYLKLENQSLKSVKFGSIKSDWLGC
Method: as §1

[3] = target: T3, MMP-9-FL (gelatinase B full length enzyme) (Homo sapiens, UniProt P14780); assay: MMP inhibition, thiopeptolide substrate assay; assay type: biochemical; conditions: thiopeptolide substrate Ac-Pro-Leu-Gly-thioester-Leu-Leu-Gly-OEt
T3 construct: MMP-9-FL (gelatinase B full length enzyme)
T3 sequence (P14780 94-707): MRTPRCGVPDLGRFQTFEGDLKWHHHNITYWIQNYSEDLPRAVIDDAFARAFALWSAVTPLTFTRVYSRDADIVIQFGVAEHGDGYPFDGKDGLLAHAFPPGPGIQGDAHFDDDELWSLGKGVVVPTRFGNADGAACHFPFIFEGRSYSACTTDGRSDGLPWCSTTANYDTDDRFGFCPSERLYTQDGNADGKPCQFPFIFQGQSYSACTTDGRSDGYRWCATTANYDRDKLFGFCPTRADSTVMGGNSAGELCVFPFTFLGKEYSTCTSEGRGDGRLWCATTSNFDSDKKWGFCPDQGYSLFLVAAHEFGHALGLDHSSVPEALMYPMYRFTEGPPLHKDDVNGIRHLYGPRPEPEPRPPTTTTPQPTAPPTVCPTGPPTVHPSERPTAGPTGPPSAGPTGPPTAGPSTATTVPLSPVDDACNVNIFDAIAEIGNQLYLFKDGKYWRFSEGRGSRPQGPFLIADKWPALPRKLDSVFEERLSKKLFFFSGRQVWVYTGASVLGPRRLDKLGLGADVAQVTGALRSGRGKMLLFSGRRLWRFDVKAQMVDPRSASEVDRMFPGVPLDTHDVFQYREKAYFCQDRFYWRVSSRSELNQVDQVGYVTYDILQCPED
Method: as §1

[4] = target: T4, MMP-3CD (stromelysin-1 catalytic domain) (Homo sapiens, UniProt P08254); assay: MMP inhibition, thiopeptolide substrate assay; assay type: biochemical; conditions: thiopeptolide substrate Ac-Pro-Leu-Gly-thioester-Leu-Leu-Gly-OEt
T4 construct: MMP-3CD (stromelysin-1 catalytic domain)
T4 sequence (P08254 100-272 limits assumed): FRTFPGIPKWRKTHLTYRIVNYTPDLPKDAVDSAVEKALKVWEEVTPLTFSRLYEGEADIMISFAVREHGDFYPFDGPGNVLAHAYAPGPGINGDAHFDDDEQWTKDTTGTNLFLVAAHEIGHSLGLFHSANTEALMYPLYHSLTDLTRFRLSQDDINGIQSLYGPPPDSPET
Method: as §1

[5] = target: MMP-2CD (gelatinase A catalytic domain) (Homo sapiens, UniProt P08253); assay: MMP inhibition, thiopeptolide substrate assay; assay type: biochemical; conditions: thiopeptolide substrate Ac-Pro-Leu-Gly-thioester-Leu-Leu-Gly-OEt
MMP-2CD (gelatinase A catalytic domain), sequence (P08253 with tags, fused parts or gaps DEL222-396): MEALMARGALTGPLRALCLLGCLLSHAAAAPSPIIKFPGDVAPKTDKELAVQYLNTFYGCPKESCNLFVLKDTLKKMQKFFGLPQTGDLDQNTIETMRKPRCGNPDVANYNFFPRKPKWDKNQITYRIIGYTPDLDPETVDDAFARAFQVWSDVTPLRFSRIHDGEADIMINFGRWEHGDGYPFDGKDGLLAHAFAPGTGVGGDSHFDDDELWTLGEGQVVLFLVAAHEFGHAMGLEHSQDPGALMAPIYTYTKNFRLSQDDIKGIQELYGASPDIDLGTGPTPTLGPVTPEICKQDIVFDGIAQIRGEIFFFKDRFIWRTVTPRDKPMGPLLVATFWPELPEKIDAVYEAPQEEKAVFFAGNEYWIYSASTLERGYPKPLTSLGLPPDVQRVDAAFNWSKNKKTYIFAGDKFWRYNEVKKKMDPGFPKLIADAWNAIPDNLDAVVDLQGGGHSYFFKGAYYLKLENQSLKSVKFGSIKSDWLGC
Method: as §1

[6] = target: T5, MMP-13CD (collagenase-3 catalytic domain) (Homo sapiens, UniProt P45452); assay: MMP inhibition, thiopeptolide substrate assay; assay type: biochemical; conditions: thiopeptolide substrate Ac-Pro-Leu-Gly-thioester-Leu-Leu-Gly-OEt; catalytic domain expressed in Escherichia coli from a synthetic gene
T5 construct: MMP-13CD (collagenase-3 catalytic domain); made in house; host or cells: Escherichia coli
Method: as §1

[7] = target: T6, MMP-1FL (collagenase-1 full length enzyme) (Homo sapiens, UniProt P03956); assay: MMP inhibition, thiopeptolide substrate assay; assay type: biochemical; conditions: thiopeptolide substrate Ac-Pro-Leu-Gly-thioester-Leu-Leu-Gly-OEt
T6 construct: MMP-1FL (collagenase-1 full length enzyme)
T6 sequence (P03956 100-469): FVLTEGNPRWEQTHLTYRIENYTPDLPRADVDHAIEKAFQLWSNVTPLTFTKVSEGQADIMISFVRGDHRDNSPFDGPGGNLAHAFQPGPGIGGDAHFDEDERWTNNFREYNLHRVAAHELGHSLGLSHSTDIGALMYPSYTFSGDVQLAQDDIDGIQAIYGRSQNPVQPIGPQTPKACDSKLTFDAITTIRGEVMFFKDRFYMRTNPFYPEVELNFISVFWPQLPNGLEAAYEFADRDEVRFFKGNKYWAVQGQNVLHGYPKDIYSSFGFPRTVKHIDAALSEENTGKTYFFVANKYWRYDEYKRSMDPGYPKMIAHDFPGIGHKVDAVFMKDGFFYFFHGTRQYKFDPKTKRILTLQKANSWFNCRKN
Method: as §1

[8] = target: T7, MMP-7FL (matrilysin full length enzyme) (Homo sapiens, UniProt P09237); assay: MMP inhibition, thiopeptolide substrate assay; assay type: biochemical; conditions: thiopeptolide substrate Ac-Pro-Leu-Gly-thioester-Leu-Leu-Gly-OEt
T7 construct: MMP-7FL (matrilysin full length enzyme)
T7 sequence (P09237 95-267): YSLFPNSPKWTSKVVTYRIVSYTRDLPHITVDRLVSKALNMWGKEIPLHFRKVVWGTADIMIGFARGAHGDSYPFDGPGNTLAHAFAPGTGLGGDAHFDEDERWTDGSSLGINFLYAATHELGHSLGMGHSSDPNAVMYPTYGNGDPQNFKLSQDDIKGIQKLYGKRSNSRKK
Method: as §1

## O=C(O)CCC(=NO)c1ccc2c3c(oc2c1)CCCC3 [Example 1, 4-Hydroxyimino4-(6,7,8,9-tetrahydro-dibenzofuran-3-yl)-butyric acid]
other
  melting point: 164 °C
[1]
  IC50: 0.24 µM
[2]
  IC50: 0.0595 µM
[3]
  IC50: 32 µM
[4]
  IC50: 0.114 µM
[5]
  IC50: 0.0183 µM
[6]
  IC50: 1.21 µM

## O=C(CC(CCCc1ccccc1)C(=O)O)c1ccc2c3c(oc2c1)CCCC3 (stereo not shown) [Example 2, 2-[2-Oxo-2-(6,7,8,9-tetrahydro-dibenzofuran-3-yl)-ethyl]-5-phenyl-pentanoic acid]
[1]
  IC50: 0.82 µM
[2]
  IC50: 0.445 µM
[4]
  IC50: 0.13 µM
[7]
  IC50: 67 µM
[5]
  IC50: 0.096 µM
[8]
  IC50: 84 µM
[6]
  IC50: 9.7 µM

## CN1C(=O)N(CC(CC(=O)c2ccc3c4c(oc3c2)CCCC4)C(=O)O)C(=O)C1(C)C (stereo not shown) [Example 3, 4-Oxo-4-(6,7,8,9-tetrahydro-dibenzofuran-3-yl)-2-(3,4,4-trimethyl-2,5-dioxo-imidazolidin-1-ylmethyl)-butyric acid]
[1]
  IC50: 2 µM
[2]
  IC50: 0.945 µM
[3]
  IC50: 14 µM
[4]
  IC50: 0.315 µM
[7]
  IC50: 31 µM
[5]
  IC50: 0.0585 µM
[8]
  IC50: 86 µM
[6]
  IC50: 1.42 µM

From patent US6350885B1, “Tricyclic heteroaromatics and their derivatives as inhibitors of matrix metalloproteinases” (Warner-Lambert Company, priority 1998, dated 2002)
